Experimental data from article PMC6941823, “A dispensable paralog of succinate dehydrogenase subunit C mediates standing resistance towards a subclass of SDHI fungicides in Zymoseptoria tritici” (PLoS Pathogens, 2019).

System: Zymoseptoria tritici isolates
Assay: Growth tests on solid agar at discriminatory fungicide concentrations
Assay type: cell-based
Settings: AE agar, pydiflumetofen 0.1 mg.L^-1, 18 DPI (procedure of Fig 6)
Description: Fig 6 Resistance to SHA-SDHIs in Z. tritici EU populations. […] Sensitivity data are sorted by genotype according to the presence of the ZtSDHC3 gene. ** p value of 0.0029 in Welch’s corrected unpaired t-test. (B) Solid agar growth of a collection of 93 Z. tritici isolates sampled in 2009 (same set as above). Individual strains from this collection are boxed and numbered 1 to 93. Boxes A and B correspond to reference resistant strains 06STD024 and 07STGB009 respectively. Box C corresponds to IPO323 reference sensitive isolate. The yellow framed boxes correspond to strains carrying the ZtSDHC3 gene. Yellow arrow designates strain 09STIR20.1 (number 78) carrying a non-functional alt-SDHC (frameshift, S6 Table).
A large scale spotting assay of 96 isolates (Fig 6) was performed using the V&P 96 floating pin tool VP408FP6 (V&P Scientific), equipped with flat tip FP6 pins of 1.58 mm diameter (resulting in approx. 0.4 μl transfer volume). Source cultures for cell spotting were grown in 100 μl YPD liquid medium in a 96 well flat bottom plate (Corning, 3370) at 18°C for 11 days (average cell density of 3.5·10^6/ml), then diluted 1:2x in fresh YPD medium and incubated for another 1.5 h before transfer with the pin tool (approx. 700 cells per spot) onto AE agar with or without fungicide. Plates were incubated at 20°C in the dark for up to 18 days. Smaller scale spotting assays (Figs 4 and 8) were performed using 5 days V8-agar plates inoculums adjusted to 2.10^6 spores.mL^-1 in water and diluted in steps of 3. 2μL of spore suspension was spotted on the plates, and the plates were incubated shielded from light at 21°C for 6 days.

## CON(C(=O)c1cn(C)nc1C(F)F)[C@@H](C)Cc1c(Cl)cc(Cl)cc1Cl [Pydiflumetofen]
Strain 06STD024
  Growth phenotype on SDHI-amended plate: Weak
Strain 06STD024, listed as pydiflumetofen
  Growth phenotype on SDHI-amended plate: weak growth
Strain 07STGB009
  Growth phenotype on SDHI-amended plate: Weak
Strain 07STGB009, listed as pydiflumetofen
  Growth phenotype on SDHI-amended plate: weak growth
Strain 09STD041
  Growth phenotype on SDHI-amended plate: Very weak
Strain 09STD053
  Growth phenotype on SDHI-amended plate: No
Strain 09STF011
  Growth phenotype on SDHI-amended plate: Weak
Strain 09STF037
  Growth phenotype on SDHI-amended plate: Very weak
Strain 09STF112
  Growth phenotype on SDHI-amended plate: Very weak
Strain 09STIR20.3
  Growth phenotype on SDHI-amended plate: Very weak
Strain IPO323
  Growth phenotype on SDHI-amended plate: No
Strain IPO94269
  Growth phenotype on SDHI-amended plate: No
